Read-outs that look alike come from different tables or passages of the source.
Key:
U87-MG cells = experiment: In vitro assay 2: BCAT cellular assay, leucine in medium of U87-MG cells; type: cell-based; settings: 24 hours incubation, leucine level in medium (LeuDH/diaphorase/resazurin readout)
Experimental: (§1) In Vitro Assay 2: BCAT Cellular Assay
(§2) Levels of leucine were measured in medium of different tumor cell lines. The enzyme BOAT (Branched chain amino acid transferase) catalyzes the consumption of leucine.
(§3) Cells (U87-MG and MDA-MB231 from ATCC) were grown in Dulbecco's Modified Eagle Medium (DMEM) containing 10% fetal calf serum. They were harvested by trypsin and seeded into 96-well plates. Cells were incubated overnight at 37° C. in an atmosphere containing 5% carbon dioxide. The next day test compounds were added to each cell well. The final concentration of dimethylsulfoxide (DMSO) was 0.1% and DMSO controls were included. The plates were then placed in an incubator for 24 hours.
(§4) Leucine was measured in an enzymatic readout with leucine dehydrogenase (LeuDH) and diaphorase. Medium is deproteinized with perchloric acid. 30 μl of 1 M aqueous perchloric acid was added to each well and the plates were centrifuged.

[1] = molecular target: T1, recombinant human BCAT2 enzyme (Homo sapiens, UniProt O15382); experiment: In vitro assay 1b: BCAT2 biochemical assay (coupled LeuDH/NADH fluorescence readout); on BCAT2 IC50 [M]: recombinant human BCAT2 0.75 nM
T1 construct: purchased ATGen (South Korea) ATGP1523
T1 sequence (O15382 28-392): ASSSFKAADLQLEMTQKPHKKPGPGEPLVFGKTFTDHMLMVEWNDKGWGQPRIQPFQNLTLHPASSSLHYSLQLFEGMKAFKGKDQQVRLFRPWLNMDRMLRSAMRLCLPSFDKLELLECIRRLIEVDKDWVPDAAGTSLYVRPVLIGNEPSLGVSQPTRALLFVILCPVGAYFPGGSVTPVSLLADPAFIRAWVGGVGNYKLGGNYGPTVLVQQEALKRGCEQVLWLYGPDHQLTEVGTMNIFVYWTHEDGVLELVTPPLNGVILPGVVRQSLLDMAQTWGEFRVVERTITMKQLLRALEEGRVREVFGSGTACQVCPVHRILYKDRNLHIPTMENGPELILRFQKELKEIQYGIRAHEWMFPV
Experimental: (§5) In Vitro Assay 1a and 1b: BCAT1 and BCAT2 Biochemical Assay
(§6) BOAT (Branched chain amino acid transferase) catalyzes transamination of the branched chain amino acid leucine to α-ketoisocaproate (KIC). The BOAT enzymatic reaction was measured in a coupled readout with leucine dehydrogenase (LeuDH) which catalyzes the Nicotinamide adenine dinucleotide (NADH) dependent reduction of KIC to leucine. NADH consumption is measured by fluorescent readout.
(§7) The biochemical reactions were performed at 32° C. in 384-well plates using a reaction volume of 51 μl and the following assay buffer conditions: 50 mM HEPES (2-[4-(2-hydroxyethyl)piperazin-1-yl]ethanesulfonic acid) pH 8.0, 50 mM aqueous solution of ammonium sulfate, 1 mM ethylenediaminetetraacetic acid, 2 mM dithiothreitol, 0.01% bovine serum albumine, 0.005% Brij 35 detergent, 0.5 μM PLP (pyridoxalphosphate), 10 μM NADH, and 50 μM α-ketoglutarate), and 100 μM leucine. […] Test compounds were used in a concentration range between 0.005 and 30 μM. The final DMSO concentration was 2%.
(§8) The reaction was initiated by addition of substrates (Leucine, α-KG, NADH).

[2] = molecular target: T2, recombinant human BCAT1 enzyme (Homo sapiens, UniProt P54687); experiment: In vitro assay 1a: BCAT1 biochemical assay (coupled LeuDH/NADH fluorescence readout)
T2 construct: purchased ATGen (South Korea) ATGP1479
T2 sequence (P54687 1-386): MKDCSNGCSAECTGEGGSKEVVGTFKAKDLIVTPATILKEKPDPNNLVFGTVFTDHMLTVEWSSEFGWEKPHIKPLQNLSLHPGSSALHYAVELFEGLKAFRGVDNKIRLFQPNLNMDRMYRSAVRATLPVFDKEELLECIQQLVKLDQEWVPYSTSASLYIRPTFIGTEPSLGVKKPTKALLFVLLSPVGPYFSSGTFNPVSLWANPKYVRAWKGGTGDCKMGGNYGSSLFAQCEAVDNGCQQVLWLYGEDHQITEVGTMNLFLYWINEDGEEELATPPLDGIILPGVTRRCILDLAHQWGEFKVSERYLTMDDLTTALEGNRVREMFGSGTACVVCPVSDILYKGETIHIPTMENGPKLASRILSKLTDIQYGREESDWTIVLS
Experimental: as §5, §6, §7, §8

MDA-MB231 cells = experiment: In vitro assay 2: BCAT cellular assay, leucine in medium of MDA-MB231 cells; type: cell-based; settings: 24 hours incubation, leucine level in medium (LeuDH/diaphorase/resazurin readout), read-out: MDAMB-231 IC50
Experimental: as §1, §2, §3, §4

[3] = recombinant human BCAT2 […], 32° C., 100 μM leucine, 50 μM α-ketoglutarate, NADH fluorescence over 90 min, read-out: BCAT2 IC50
[4] = recombinant human BCAT1 […], 32° C., 100 μM leucine, 50 μM α-ketoglutarate, NADH fluorescence over 90 min, read-out: BCAT1 IC50

Row | SMILES | IC50 (U87-MG cells; Homo sapiens, U-87 MG, 24 h) [µM] | IC50 [1, 3] [M] | IC50 [2, 4] [M] | IC50 ([2]; BCAT1 IC50 [M]) [M] | IC50 (MDA-MB231 cells) [µM] | IC50 (U87-MG cells) [µM] | IC50 (MDA-MB231 cells; Homo sapiens, MDA-MB-231, 24 h) [µM] | IC50 ([1]; BCAT2 IC50 [M]) [M]
1 | COc1cc(Cl)c(Oc2ccccc2C)cc1-n1c(=O)cc(C(F)F)[nH]c1=O (racemic) [Example 28, 3-[4-Chloro-2-methoxy-5-(2-methylphenoxy)phenyl]-6-(difluoromethyl)pyrimidine-2,4(1H,3H)-dione (rac)] | 6.2 | 3.5e-06 | 2.8e-07 |  |  |  |  | 
2 | COc1cc(C#N)c(Oc2ccccc2C)cc1-n1c(=O)cc(C(F)(F)F)[nH]c1=O (single isomer, unassigned) [Example 5, 4-[2,6-Dioxo-4-(trifluoromethyl)-3,6-dihydropyrimidin-1(2H)-yl]-5-methoxy-2-(2-methylphenoxy)benzonitrile (atrop 1)] | 6 |  |  | 1.13e-07 |  |  |  | 
3 | COc1cc(C#N)c(Oc2ccccc2C)cc1-n1c(=O)cc(C(N)=O)[nH]c1=O (racemic) [Example 73, 1-[4-Cyano-2-methoxy-5-(2-methylphenoxy)phenyl]-2,6-dioxo-1,2,3,6-tetrahydropyrimidine-4-carboxamide (rac)] | > 30 | 5.9e-06 | 9e-07 |  |  |  |  | 
4 | COc1cc(C#N)c(Oc2ccccc2C)cc1-n1c(=O)cc(S(=O)(=O)c2ccccc2)[nH]c1=O (single isomer, unassigned) [Example 78, 4-[4-(Benzenesulfonyl)-2,6-dioxo-3,6-dihydropyrimidin-1(2H)-yl]-5-methoxy-2-(2-methylphenoxy)benzonitrile (atrop 2)] |  | 1.4e-07 |  |  | 3.8 | 12.5 |  | 
5 | COc1cc(Cl)c(Oc2ccccc2C)cc1-n1c(=O)cc(C(F)(F)F)[nH]c1=O (racemic) [Example 27, 3-[4-Chloro-2-methoxy-5-(2-methylphenoxy)phenyl]-6-(trifluoromethyl)pyrimidine-2,4(1H,3H)-dione (rac)] |  | 4.33e-06 | 4.38e-07 |  | 20 |  | > 30 | 
6 | Cc1ccccc1Oc1cc(-n2c(=O)cc(C(F)(F)F)[nH]c2=O)c(C)cc1C#N (single isomer, unassigned) [Example 9, 4-[2,6-Dioxo-4-(trifluoromethyl)-3,6-dihydropyrimidin-1(2H)-yl]-5-methyl-2-(2-methylphenoxy)benzonitrile (atrop 2)] |  |  |  | 8e-08 |  | 1.5 |  | 9e-07
7 | Cc1ccccc1Oc1cc(-n2c(=O)cc(C(F)(F)C(F)(F)F)[nH]c2=O)c(F)cc1C#N [Example 52, 4-[2,6-dioxo-4-(pentafluoroethyl)-3,6-dihydropyrimidin-1(2H)-yl]-5-fluoro-2-(2-methylphenoxy)benzonitrile] | 2.95 |  | 1.35e-06 |  |  |  | 30 | 
8 | COc1cc(C#N)c(Oc2ccccc2C)cc1-n1c(=O)cc(-c2ccccc2)[nH]c1=O (racemic) [Example 42, 4-(2,6-Dioxo-4-phenyl-3,6-dihydropyrimidin-1(2H)-yl)-5-methoxy-2-(2-methylphenoxy)benzonitrile (rac)] |  | 1e-05 | 7.25e-07 |  |  |  | > 30 | 
9 | Cc1ccccc1Oc1cc(-n2c(=O)cc(C(F)(F)F)[nH]c2=O)cnc1C#N [Example 47, 5-[2,6-Dioxo-4-(trifluoromethyl)-3,6-dihydropyrimidin-1(2H)-yl]-3-(2-methylphenoxy)pyridine-2-carbonitrile] |  | 3.2e-06 | 6.5e-07 |  |  |  | > 30 | 
10 | Cc1ccccc1Oc1cc(-n2c(=O)cc(-c3cccc(Cl)c3)[nH]c2=O)c(F)cc1C#N [Example 70, 4-[4-(3-Chlorophenyl)-2,6-dioxo-3,6-dihydropyrimidin-1(2H)-yl]-5-fluoro-2-(2-methylphenoxy)benzonitrile] | 30 |  | 1.33e-06 |  |  | > 30 | > 30 | 
11 | COc1cc(C#N)c(Oc2ccccc2C)cc1-n1c(=O)cc(Br)[nH]c1=O (single isomer, unassigned) [Example 20, 4-[4-Bromo-2,6-dioxo-3,6-dihydropyrimidin-1(2H)-yl]-5-methoxy-2-(2-methylphenoxy)benzonitrile (atrop 1)] |  | 2.3e-05 | 2.35e-06 |  | 27 |  |  | 
12 | Cc1ccccc1Oc1cc(-n2c(=O)cc(-c3ccc(C(F)(F)F)cc3)[nH]c2=O)c(F)cc1C#N [Example 68, 4-{2,6-Dioxo-4-[4-(trifluoromethyl)phenyl]-3,6-dihydropyrimidin-1(2H)-yl}-5-fluoro-2-(2-methylphenoxy)benzonitrile] | 7.5 |  | 2.16e-06 |  |  |  | 9 | 
13 | Cc1ccccc1Oc1cc(-n2c(=O)cc(C3CC3)[nH]c2=O)c(F)cc1C#N [Example 72, 4-(4-Cyclopropyl-2,6-dioxo-3,6-dihydropyrimidin-1(2H)-yl)-5-fluoro-2-(2-methylphenoxy)benzonitrile] |  | 2.5e-05 | 2e-06 |  |  |  | > 30 | 
14 | Cc1ccccc1Oc1cc(-n2c(=O)cc(-c3ccccc3)[nH]c2=O)c(F)cc1C#N [Example 49, 4-(2,6-Dioxo-4-phenyl-3,6-dihydropyrimidin-1(2H)-yl)-5-fluoro-2-(2-methylphenoxy)benzonitrile] |  | 4.93e-06 | 6.98e-07 |  |  |  | > 30 | 
15 | COc1cc(C#N)c(Oc2ccccc2C)cc1-n1c(=O)cc(-c2ccc(C(F)(F)F)cc2)[nH]c1=O (racemic) [Example 69, 4-{2,6-Dioxo-4-[4-(trifluoromethyl)phenyl]-3,6-dihydropyrimidin-1(2H)-yl}-5-methoxy-2-(2-methylphenoxy)benzonitrile (rac)] | > 30 |  | 4.5e-06 |  |  |  |  | 
16 | Cc1ccccc1Oc1cc(-n2c(=O)cc(C(F)(F)F)[nH]c2=O)c(C)cc1C#N (single isomer, unassigned) [Example 8, 4-[2,6-Dioxo-4-(trifluoromethyl)-3,6-dihydropyrimidin-1 (2H)-yl]-5-methyl-2-(2-methylphenoxy)benzonitrile (atrop 1)] |  |  |  | 1.1e-06 |  | 6 |  | 9e-06
17 | Cc1ccccc1Oc1cc(-n2c(=O)cc(C(F)(F)F)[nH]c2=O)c(C)cc1C#N (racemic) [Example 7, 4-[2,6-Dioxo-4-(trifluoromethyl)-3,6-dihydropyrimidin-1(2H)-yl]-5-methyl-2-(2-methylphenoxy)benzonitrile (rac)] |  |  |  | 2.87e-07 | > 30 |  | 30 | 1.8e-06
18 | Cc1ccccc1Oc1cc(-n2c(=O)cc(C(=O)NCC(F)(F)F)[nH]c2=O)c(F)cc1C#N [Example 71, 1-[4-Cyano-2-fluoro-5-(2-methylphenoxy)phenyl]-2,6-dioxo-N-(2,2,2-trifluoroethyl)-1,2,3,6-tetrahydropyrimidine-4-carboxamide] | > 30 |  | 1.75e-06 |  |  |  | > 30 | 
19 | COc1cc(Cl)c(Oc2ccccc2Cl)cc1-n1c(=O)cc(C(F)(F)F)[nH]c1=O (racemic) [Example 50, 3-[4-Chloro-5-(2-chlorophenoxy)-2-methoxyphenyl]-6-(trifluoromethyl)pyrimidine-2,4(1H,3H)-dione (rac)] | 3.6 | 5e-06 | 7.5e-07 |  |  |  |  | 

Source: patent US20220411381A1, “PYRIMIDINEDIONE DERIVATIVES” (Bayer Aktiengesellschaft, priority 2019, published 2022)
